Columns and labels:
[1] = Sensory evaluation in model dentifrice by a panel of trained flavourists; format: in vivo, human; conditions: 10 ppm in unflavored model dentifrice, brushing with 1 g for 60 seconds, no rinsing
Protocol: The oxalate of 2-(methylthio)-1-(2-(5-(p-tolyl)imidazol-2-yl)piperidin-1-yl)propan-1-one (prepared according to Example 1d) was dissolved at a concentration of 1 wt-% in propylene glycol. This solution was then dispersed in an appropriate quantity to obtain the desired final concentration of 10 ppm (parts per million) of the test compound into a model, unflavored dentifrice, the formula of which is given below (ingredients obtained from the suppliers respectively indicated in parenthesis).
A panel of trained flavourists evaluated the dentifrice containing the oxalate, by brushing their teeth with 1 g of the dentifrice using a toothbrush for 60 seconds, followed by spitting, without rinsing the mouth afterwards for the duration of the evaluation. The flavourists evaluated and recorded the cooling performance as well as other sensorial and organoleptic attributes at different time-points over a period of 90 minutes. The following tasting notes were recorded: Good coolant. Clean, with a pleasant, mild tingling effect. Active in all areas of the mouth.

hTRPM8 = biological target: T1, hTRPM8 (Homo sapiens, UniProt Q7Z2W7); assay: Assay on TRPM8 modulators: calcium imaging (Fluo-4, Flexstation 3) in HEK293 cell line stably expressing hTRPM8; format: cell-based; conditions: HEK293 cells stably expressing hTRPM8; Fluo-4 calcium imaging; sigmoidal dose-response fit; read-out: EC50 value (TRPM8 agonist, calcium influx)
T1 construct: expressed in transfected cells
T1 sequence (Q7Z2W7 whole entry): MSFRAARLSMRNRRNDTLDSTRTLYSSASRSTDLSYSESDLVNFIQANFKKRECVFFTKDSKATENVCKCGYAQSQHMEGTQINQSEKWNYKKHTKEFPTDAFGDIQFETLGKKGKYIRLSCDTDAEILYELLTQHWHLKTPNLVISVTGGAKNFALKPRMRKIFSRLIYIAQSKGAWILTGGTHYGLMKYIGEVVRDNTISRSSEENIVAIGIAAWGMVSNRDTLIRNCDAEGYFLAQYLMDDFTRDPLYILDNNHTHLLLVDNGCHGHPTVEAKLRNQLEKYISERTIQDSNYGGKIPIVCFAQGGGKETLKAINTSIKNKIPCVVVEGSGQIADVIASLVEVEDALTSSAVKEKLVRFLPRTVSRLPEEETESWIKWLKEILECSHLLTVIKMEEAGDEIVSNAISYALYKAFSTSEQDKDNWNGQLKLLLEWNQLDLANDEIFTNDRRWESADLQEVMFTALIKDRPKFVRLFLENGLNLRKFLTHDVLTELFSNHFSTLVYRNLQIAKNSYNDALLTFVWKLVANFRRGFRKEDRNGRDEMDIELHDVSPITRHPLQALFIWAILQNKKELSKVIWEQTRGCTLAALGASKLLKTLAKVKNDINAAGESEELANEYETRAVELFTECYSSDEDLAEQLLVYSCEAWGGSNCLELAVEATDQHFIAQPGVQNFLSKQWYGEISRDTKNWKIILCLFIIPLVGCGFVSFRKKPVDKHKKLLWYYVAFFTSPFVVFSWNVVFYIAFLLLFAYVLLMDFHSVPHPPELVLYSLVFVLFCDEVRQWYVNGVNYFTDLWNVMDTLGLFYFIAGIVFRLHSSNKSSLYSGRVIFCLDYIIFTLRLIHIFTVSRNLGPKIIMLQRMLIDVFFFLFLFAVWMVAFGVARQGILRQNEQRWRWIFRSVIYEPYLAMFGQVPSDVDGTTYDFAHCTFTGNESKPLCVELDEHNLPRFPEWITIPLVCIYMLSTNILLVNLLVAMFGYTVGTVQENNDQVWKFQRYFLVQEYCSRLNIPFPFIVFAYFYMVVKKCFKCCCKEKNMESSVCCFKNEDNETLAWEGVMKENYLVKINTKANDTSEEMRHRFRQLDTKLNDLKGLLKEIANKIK
Protocol: A HEK293 cell line stably expressing hTRPM8 was generated according to Klein et al., (Chem. Senses 36: 649-658, 2011) and receptor activation was monitored by calcium imaging in a Flexstation. For Ca-imaging assays of TRPM8 channel activation, cells were seeded on day 0 at a density of 12000 cells per well in Dulbecco's modified Eagle medium (DMEM) containing 9% foetal bovine serum in black, clear bottom 96-well plates that had been coated with 0.001% polyethyleneimine (molecular weight=60 000, Acros Organics). On day 2, agonists were evaluated via calcium imaging using Fluo-4. Briefly, growth medium was discarded, and the cells were incubated in the dark for 1 h at 37° C. in 50 μL loading buffer consisting of 2.7 μM Fluo-4 AM (Invitrogen) and […] probenecid (Sigma-Aldrich) in DMEM (without serum). […] The cells were then washed five times with 100 μL assay buffer and then calcium influx to serial dilutions of 2-(1-(2-(methylthio)propanoyl)piperidin-2-yl)-5-(p-tolyl)-1H-imidazolium carboxyformate was measured in a Flexstation 3 (Molecular Devices). […] Fluorescence was continuously monitored for 15 seconds prior to ligand addition and for 105 seconds after ligand addition, for a total of 120 seconds. Maximal receptor activation in relation to solvent control and relative to 31.6 μM menthol is determined. […]

SMILES: CSC(C)C(=O)N1CCCCC1c1ncc(-c2ccc(C)cc2)[nH]1.O=C(O)C(=O)O (stereo not shown) [Example 1d, 2-(1-(2-(methylthio)propanoyl)piperidin-2-yl)-5-(p-tolyl)-1H-imidazolium carboxyformate]
- onset of cooling effect (tasting notes) [1]: Fast acting (upfront cooling) with effect perceived already during brushing
- cooling performance (tasting notes) ([1]; evaluated over 90 minutes): Good coolant
- longevity of cooling effect (tasting notes) ([1]; evaluated over 90 minutes): Strong cooling peak with long-lasting effect up to one hour
- EC50 (hTRPM8): < 10 nM

Reference: patent US20240197604A1, “COMPOUNDS WITH COOLING SENSATION PROPERTIES” (Givaudan SA, priority 2021, published 2024)
